From US8741951B2, “Non-steroidal compounds for androgen receptor modulation” (CNR—Consiglio Nazionale delle Ricerche, priority 2009, dated 2014) come the findings set out here.

Entries after “also recorded” stand apart in the source; their conditions may differ.

For series [1], the target named is T1, human androgen receptor (hAR) (Homo sapiens, UniProt P10275).
T1 construct: expressed in transfected cells; host or cells: Cos-7
T1 sequence (P10275 1-920): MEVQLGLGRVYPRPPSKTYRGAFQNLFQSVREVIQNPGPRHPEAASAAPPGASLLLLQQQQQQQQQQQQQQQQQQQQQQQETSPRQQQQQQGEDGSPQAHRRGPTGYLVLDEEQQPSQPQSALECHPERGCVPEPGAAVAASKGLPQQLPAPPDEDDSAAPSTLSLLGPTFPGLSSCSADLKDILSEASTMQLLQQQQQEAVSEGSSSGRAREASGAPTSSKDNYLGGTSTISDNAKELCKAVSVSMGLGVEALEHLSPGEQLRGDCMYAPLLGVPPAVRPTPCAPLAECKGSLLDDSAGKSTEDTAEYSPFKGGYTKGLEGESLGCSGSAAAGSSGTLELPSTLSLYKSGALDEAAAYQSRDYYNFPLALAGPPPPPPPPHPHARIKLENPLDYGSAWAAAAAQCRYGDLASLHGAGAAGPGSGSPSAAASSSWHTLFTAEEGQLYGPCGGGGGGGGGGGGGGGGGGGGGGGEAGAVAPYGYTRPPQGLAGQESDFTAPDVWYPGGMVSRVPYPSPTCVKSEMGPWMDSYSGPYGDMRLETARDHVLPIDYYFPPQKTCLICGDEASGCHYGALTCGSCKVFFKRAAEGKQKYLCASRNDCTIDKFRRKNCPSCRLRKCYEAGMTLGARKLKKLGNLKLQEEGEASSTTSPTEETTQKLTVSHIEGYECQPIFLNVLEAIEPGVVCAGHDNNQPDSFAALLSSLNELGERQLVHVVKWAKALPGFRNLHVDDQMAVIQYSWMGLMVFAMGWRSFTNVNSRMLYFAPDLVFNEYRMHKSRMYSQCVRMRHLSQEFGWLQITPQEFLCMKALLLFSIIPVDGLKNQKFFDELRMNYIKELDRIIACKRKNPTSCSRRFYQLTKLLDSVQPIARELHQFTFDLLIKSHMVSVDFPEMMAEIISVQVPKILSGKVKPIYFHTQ
Kind of series: hAR transactivation assay (ARE-luc) in Cos-7 cells. It is filed as cell-based. The text has this:
The cDNA coding hAR was cloned into the pSG5 expression vector as reported previously [Chang, C. S., J. Kokontis, and S. T. Liao 1988 Molecular cloning of human and rat complementary DNA encoding androgen receptors Science 240:324-326].
The 3416 construct (ARE-Luc), containing four copies of the wild-type slp-HRE2 (5′-TGGTCAgccAGTTCT-3′) was cloned in the NheI site in pTK-TATA-Luc [Verrijdt, G., E. Schoenmakers, A. Haelens, B. Peeters, G. Verhoeven, W. Rombauts, and F. Claessens 2000 Change of specificity mutations in androgen selective enhancers J. Biol. Chem. 275:12298-12305].
For androgen-stimulated transcriptional analysis, 32×10^4 Cos-7 cells were plated in phenol red-free DMEM containing 5% charcoal-stripped serum. After 48 h, the cells were transfected by Superfect (Qiagen) with 0.3 μg of 3416-pTK-TATA-Luc construct, together with 1.5 μg of either pSG5-empty plasmid or pSG5-hAR expressing plasmid. […] When indicated, the synthetic compounds were added alone to the cell medium. […] It was dissolved in 0.001% (final concentration) ethanol. Control cells were treated with the vehicle alone. Lysates were prepared and the luciferase activity was measured using a luciferase assay system (Promega). The results were corrected using CH110-expressed beta-galactosidase activity (Amersham Biosciences) and luciferase activity was expressed as fold induction. Results were obtained from two or three different experiments, each performed in duplicate. Mean and SEM are shown.

Another series concerns PC-3 cell line. In words: SRB cytotoxicity, PC-3. It counts as cell-based, human. The following applies: PC-3 (no AR), 144 h, up to 20 μM. The method, then:
FIGS. 16-25: cytotoxic effect of compounds (R)-XXIII-2, (R)-XXIII-3, (R)-XXIII-4, (R)-XXIII-5, (R)-XXIII-6, (R)-XXIII-7, (R)-XXIII-8, (R)-XXIII-9, (R)-XXIII-10, (R)-XXIV-9 on PC-3 and DU-145 cell lines at different concentration (0.02, 0.2, 2, 20 μM) after 144 h exposure. On the x-axis is reported the concentration, while on the y-axis is reported the inhibition of the net growth (% net growth).
Sulforhodamine B (SRB) assay was used according to the method by Skehan et al. (JNCI, 1990). Briefly, cells were collected by trypsinization, counted and plated at a density of 5,000 cells/well in 96-well flat-bottomed microtiter plates (100 μl of cell suspension/well). In the chemosensitivity assay, experiments were run in octuplicate, and each experiment was repeated three times. The optical density (OD) of cells was determined at a wavelength of 490 nm by a colorimetric plate reader.
If ODtreated is above ODzero, treatment has induced a cytostatic effect, whereas if ODtreated is below ODzero, cell killing has occurred. The ODzero depicts the cell number at the moment of drug addition, the ODcontrol reflects the cell number in untreated wells and the ODtreated reflects the cell number in treated wells on the day of the assay.

Series [2] deals with human CW22-RV1 prostate carcinoma xenograft. In words: In vivo antitumor activity, CW22-RV1 xenograft s.c. in nude mice. The method, then:
CW-22Rv1, a human prostate carcinoma epithelial cell line were purchased from ATCC.
In vivo antitumor activity experiments with the compound (R)-XXIII-6 were carried out using female athymic Swiss nude mice 8 to 10 weeks of age (Charles River, Calco, Italy). Mice were maintained in laminar flow rooms, keeping temperature and humidity constant. Mice had free access to food and water. Experiments were approved by the Ethics Committee for Animal Experimentation of the Istituto Nazionale Tumori (Milan, Italy).
Human CW22-RV1 cells, a human prostate carcinoma epithelial cell line, derived from a xenograft that was serially propagated in mice after castration-induced regression and relapse of the parental, androgen-dependent CWR22 xenograft, were used for in vivo experiments. The prostate carcinoma cell line were inoculated by subcutaneous injection (s.c.) in the right flank of nude mice, at day 0. Treatment started at day 3 when tumor weights were around 60 mg.
The efficacy of the drug treatment was assessed as: (a) TWI % in treated versus control mice, calculated as TWI=100−(mean TW treated/mean TW control×100).
The toxicity of the drug treatment was assessed as: (a) BWL calculated as BWL=100−(mean BWdayx/mean BWday1×100), where day 1 is the first day of treatment and day x is any day after (mice were weighed twice/week throughout the experimental frame and in the table 3 the maximum BWL value was reported); and (b) lethal toxicity, i.e., any death in treated groups occurring before any control death (mice were inspected daily for mortality).

`N#Cc1ccc(NC(=O)[C@](O)(Cc2cccs2)CS(=O)(=O)c2ccc(F)cc2)cc1C(F)(F)F` [(R)-XXIII-6]: the “inhibition of R1881-induced AR transcriptional activation (antagonistic activity), in words” value in series [1] (compound 10 μM with 10 nM R1881) was “antagonistic activity”. The “agonistic activity on AR transcription, in words” value in series [1] (compound alone, 10 nM to 1 μM or 10 μM) is listed as “does not seem to display agonistic activity”. The “cytotoxic activity, in words” value in the series on PC-3 cell line is on record as “negligible cytotoxic activity”. In addition, in series [2] (100 mg/Kg p.o.), the “Tox/Tot (deaths in treated mice before any control death)” value is 0/6 and the “day of Max TWI % (day after tumor inoculum)” value turned out to be 23 days. The “Max TWI %” value in series [2] (100 mg/Kg p.o., (qdx5/wx2w) × 2 cycles) was determined as 45%. In series [2] (100 mg/Kg p.o., during drug treatment), the “Max BWL (maximum body weight loss in percentage)” value stood at 2%. Further, the “tolerability, in words” value in series [2] (100 mg/kg p.o.) is listed as “generally well tolerated, with no signs of acute or delayed toxicity”. In addition, in series [2] (100 mg/kg p.o., versus untreated mice), the “antitumor activity / tumor weight, in words” value is reported as “significant reduction in tumor weight; also recorded: effective in slowing tumor growth”.
